# Source: patent US5594135A, “Tricyclic DNA gyrase inhibitors” (Hoffmann-La Roche Inc., priority 1994, dated 1997)
# Where a name gives a salt, the structure may show the parent alone.
# How the values were obtained:
# [1] = test system: S. faecalis 6; test: Antibacterial activity in vitro (agar dilution); type: cell-based; details: Enterococcus faecalis, agar dilution (MuellerHinton agar), inoculum 10^4 CFU/spot, read-out: minimum inhibitory concentration (MIC)
# [2] = test system: E. coli B; test: Antibacterial activity in vitro (agar dilution); type: cell-based; details: Escherichia coli, agar dilution (MuellerHinton agar), inoculum 10^4 CFU/spot, read-out: minimum inhibitory concentration (MIC)
# [3] = test system: S. epidermidis 16-2; test: Antibacterial activity in vitro (agar dilution); type: cell-based; details: Staphylococcus epidermidis, 162, agar dilution (MuellerHinton agar), inoculum 10^4 CFU/spot, read-out: minimum inhibitory concentration (MIC)
# [4] = test system: P. aeruginosa 799/61; test: Antibacterial activity in vitro (agar dilution); type: cell-based; details: Pseudomonas aeruginosa, agar dilution (MuellerHinton agar), inoculum 10^4 CFU/spot, read-out: minimum inhibitory concentration (MIC)
# [5] = test system: S. aureus 25923; test: Antibacterial activity in vitro (agar dilution); type: cell-based; details: Staphylococcus aureus, agar dilution (MuellerHinton agar), inoculum 10^4 CFU/spot, read-out: minimum inhibitory concentration (MIC)
# [6] = test system: S. aureus Smith; test: Antibacterial activity in vitro (agar dilution); type: cell-based; details: Staphylococcus aureus, agar dilution (MuellerHinton agar), inoculum 10^4 CFU/spot, read-out: minimum inhibitory concentration (MIC)
# [7] = molecular target: T1, DNA gyrase (Escherichia coli, UniProt P0AES4+P0AES6); test: Inhibition of DNA gyrase activity (DNA gyrase supercoiling assay, relaxed pUC18 plasmid as substrate); type: biochemical, E. coli H560
# T1 construct: supercoiling of relaxed pUC18
# T1 sequence (P0AES4 whole entry, one chain of several): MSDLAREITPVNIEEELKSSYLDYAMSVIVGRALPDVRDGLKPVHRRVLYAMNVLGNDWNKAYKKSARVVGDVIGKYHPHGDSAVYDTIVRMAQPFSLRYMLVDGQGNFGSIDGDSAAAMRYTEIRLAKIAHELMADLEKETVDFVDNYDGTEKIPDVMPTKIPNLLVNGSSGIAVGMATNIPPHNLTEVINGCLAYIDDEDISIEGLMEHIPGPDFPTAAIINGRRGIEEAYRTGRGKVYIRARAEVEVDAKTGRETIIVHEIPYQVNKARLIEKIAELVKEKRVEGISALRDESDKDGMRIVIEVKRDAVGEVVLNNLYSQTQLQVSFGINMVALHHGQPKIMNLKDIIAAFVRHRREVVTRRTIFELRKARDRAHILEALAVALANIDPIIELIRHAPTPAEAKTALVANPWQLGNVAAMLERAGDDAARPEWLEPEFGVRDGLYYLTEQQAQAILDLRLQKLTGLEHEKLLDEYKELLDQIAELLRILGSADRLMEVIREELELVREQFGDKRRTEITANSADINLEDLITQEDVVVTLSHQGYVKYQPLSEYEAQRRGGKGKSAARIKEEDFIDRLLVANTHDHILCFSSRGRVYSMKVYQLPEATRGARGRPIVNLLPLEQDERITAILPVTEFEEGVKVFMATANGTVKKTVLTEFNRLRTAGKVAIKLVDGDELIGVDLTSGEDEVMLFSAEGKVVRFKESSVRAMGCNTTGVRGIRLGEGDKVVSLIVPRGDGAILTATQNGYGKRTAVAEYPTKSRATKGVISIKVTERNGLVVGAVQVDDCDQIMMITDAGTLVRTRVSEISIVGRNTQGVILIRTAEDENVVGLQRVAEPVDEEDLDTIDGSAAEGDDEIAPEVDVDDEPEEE
# Protocol: A. Inhibition of DNA gyrase activity
# The inhibition of DNA gyrase activity was measured using a DNA gyrase supercoiling assay according to R. Otter & N. Cozzarelli: Methods in Enzymology, Vol. 100, pp 171-180 (1983). DNA gyrase was isolated from E. coli H560, and relaxed pUC18 plasmid was used as substrate. The activities as regards inhibition of DNA gyrase activity, expressed as maximum non-effective concentration of the test compound (MNC in μg/ml) are compiled in the following Table 1: […]
# [8] = test system: S. pyogenes 15; test: Antibacterial activity in vitro (agar dilution); type: cell-based; details: Streptococcus pyogenes, agar dilution (MuellerHinton agar), inoculum 10^4 CFU/spot, read-out: minimum inhibitory concentration (MIC)
Structure (SMILES),MIC [1] [µg/mL],MIC [2] [µg/mL],MIC [3] [µg/mL],MIC [4] [µg/mL],MIC [5] [µg/mL],MIC [6] [µg/mL],maximum non-effective concentration of the test compound (MNC) [7] [µg/mL],MIC [8] [µg/mL]
"COc1cc(O)c2c(c1C)C(=O)O[C@H](CO)CCC(=S)N[C@H](C(=O)NC1CCCC1)CSC2 [Example 14, (4R,9S)-15-hydroxy-9-hydroxymethyl-13-methoxy-12-methyl-11-oxo-6-thioxo-3,4,5,6,7,8,9,11-octahydro-1H-10,2,5-benzoxathiaazacyclotridecine-4-carboxylic acid cyclopentylamide]",4,64,1,8,16,8,0.2,4
COC(=O)c1c(Br)c(OC)cc(O)c1CSC[C@H](Nc1nc(-c2ccc(C(=O)O)cc2)cs1)c1nc(C)no1 [Example 171],4,> 64,1,> 64,8,4,–,2
"COc1cc(O)c2c(c1C)C(=O)OCCCCC(=S)N[C@H](c1nc(CN)no1)CSC2.Cl [Example 130, (R)-4-(3-aminomethyl-1,2,4-oxadiazol-5-yl)-16-hydroxy-14-methoxy-13-methyl-6-thioxo-1,3,4,5,6,7,8,9,10,12-decahydro-11,2,5-benzoxathiaazacyclotetradecin-12-one hydrochloride]",0.5,32,0.12,64,0.5,0.25,–,0.5
"COC(=O)[C@@H]1CSCc2c(O)cc(OC)c(C)c2C(=O)OC[C@H](O)CCC(=S)N1 [Example 32, (4R,9R)-9,16-dihydroxy-14-methoxy-13-methyl-12-oxo-6-thioxo-1,3,4,5,6,7,8,9,10,12-decahydro-11,2,5-benzoxathiaazacyclotetradecine-4-carboxylic acid methyl ester]",2,> 64,0.25,4,1,0.5,0.01,2
"COC(=O)[C@@H]1CSCc2c(O)cc(OC)c(C)c2C(=O)O[C@H](COC(C)=O)CCC(=S)N1 [Example 11, (4R,9S)-9-acetoxymethyl-15-hydroxy-13-methoxy-12-methyl-11-oxo-6-thioxo-3,4,5,6,7,8,9,11-octahydro-1H-10,2,5-benzoxathiaazacyclotridecine-4-carboxylic acid methyl ester]",2,> 64,0.12,8,0.5,0.5,0.02,2
"COC(=O)c1c(C)c(OC)cc(O)c1CSC[C@H](Nc1nc(-c2ccccc2)ns1)c1nc(C)no1 [Example 175, (R)-3-hydroxy-5-methoxy-6-methyl-2-[2-(3-methyl-1,2,4-oxadiazol-5-yl)-2-(3-phenyl-1,2,4-thiadiazol-5-ylamino)-ethylsulfanylmethyl]-benzoic acid methyl ester]",4,> 64,1,> 64,4,1,–,4
"COc1cc(O)c2c(c1C)C(=O)OCCCCC(=S)N[C@H](C(N)=O)CSC2 [Example 69, (R)-16-hydroxy-14-methoxy-13-methyl-12-oxo-6-thioxo-1,3,4,5,6,7,8,9,10,12-decahydro-11,2,5-benzoxathiaazacyclotetradecine-4-carboxylic acid amide]",2,> 64,0.25,> 64,4,2,0.04,2
"CCCNC(=O)[C@@H]1CSCc2c(O)cc(OC)c(C)c2C(=O)OCCCCC(=S)N1 [Example 26, (R)-16-hydroxy-14-methoxy-13-methyl-12-oxo-6-thioxo-1,3,4,5,6,7,8,9,10,12-decahydro-11,2,5-benzoxathiaazacyclotetradecine-4-carboxylic acid propylamide]",2,> 64,0.12,32,2,0.5,0.04,4
"COc1cc(O)c2c(c1C)C(=O)O[C@H](CO)CCC(=S)N[C@H](c1nc(C)no1)CSC2 [Example 16, (4R,9S)-15-hydroxy-9-hydroxymethyl-13-methoxy-12-methyl-4-(3-methyl-1,2,4-oxadiazol-5-yl)-6-thioxo-3,4,5,6,7,8,9,11-octahydro-1H-10,2,5-benzoxathiaazacyclotridecine-11-one]",–,–,–,–,–,–,0.01,–
"COc1cc(O)c2c(c1C)C(=O)OCCCCC(=O)N[C@H](c1nc(CNC(C)C)no1)CSC2 [Example 132, (R)-16-hydroxy-4-[3-(isopropylamino)-methyl-1,2,4-oxadiazol-5-yl]-14-methoxy-13-methyl-1,3,4,5,6,7,8,9,10,12-decahydro-11,2,5-benzoxathiaazacyclotetradecin-6,12-dione hydrochloride]",4,64,0.5,> 64,4,2,–,4
"COc1cc(O)c2c(c1C)C(=O)OCCCCC(=S)N[C@H](c1nc(CNC(C)=O)no1)CSC2 [Example 142, (R)-N-[5-(16-hydroxy-14-methoxy-13-methyl-12-oxo-6-thioxo-1,3,4,5,6,7,8,9,10,12-decahydro-11,2,5-benzoxathiaazacyclotetradecin-4-yl)-1,2,4-oxadiazol-3-ylmethyl]-acetamide]",1,64,0.12,> 64,2,1,–,1
"COC(=O)c1c(Br)c(OC)cc(O)c1CSC[C@H](NC(C)=S)c1nc(C)no1 [Example 71, (R)-2-bromo-5-hydroxy-3-methoxy-6-[2-(3-methyl-1,2,4-oxadiazol-5-yl)-2-thioacetylamino-ethylsulfanylmethyl]-benzoic acid methyl ester]",4,> 64,0.5,64,2,1,0.5,4
"COc1cc(O)c(CSC[C@H](NC(C)=O)c2nc(C)no2)c(C#N)c1C [Example 97, (R)-N-[2-(2-cyano-6-hydroxy-4-methoxy-3-methyl-benzylsulfanyl]-1-(3-methyl-1,2,4-oxadiazol-5-yl)-ethyl]-acetamide]",16,64,1,64,16,8,0.4,16
"COc1cc(O)c2c(c1C)C(=O)OCCCCC(=O)N[C@H](c1nc(C)no1)C[S@@+]([O-])C2 [Example 111, (2S,4R)-16-hydroxy-14-methoxy-13-methyl-4-(3-methyl-1,2,4-oxadiazol-5-yl)-2-oxo-1,3,4,5,6,7,8,9,10,12-benzoxathiaazacyclotetradecin-6,12-dione]",–,–,–,–,–,–,0.1,–
"COC(=O)c1c(Cl)c(OC)cc(O)c1CSC[C@H](NC(C)=S)c1nc(C)no1 [Example 92, (R)-2-chloro-5-hydroxy-3-methoxy-6-[2-(3-methyl-1,2,4-oxadiazol-5-yl)-2-thioacetylamino-ethylsulfanylmethyl]-benzoic acid methyl ester]",8,> 64,1,64,4,2,0.04,8
"COc1cc(O)c2c(c1C)C(=O)OCCCCC(=O)N[C@H](c1nc(C)no1)CSC2 [Example 33, (R)-16-hydroxy-14-methoxy-13-methyl-4-(3-methyl-1,2,4-oxadiazol-5-yl)-1,3,4,5,6,7,8,9,10,12-decahydro-11,2,5-benzoxathiaazacyclotetradecine-6,12-dione]",0.5,32,0.25,4,0.5,0.25,0.01,1
"C#CCNC(=O)[C@@H]1CSCc2c(O)cc(OC)c(C)c2C(=O)OCCCCC(=S)N1 [Example 27, (R)-16-hydroxy-14-methoxy-13-methyl-12-oxo-6-thioxo-1,3,4,5,6,7,8,9,10,12-decahydro-11,2,5benzoxathiaazacyclotetradecine-4-carboxylic acid prop-2-ynylamide]",0.5,64,0.12,2,1,0.5,0.01,4
